Columns and labels:
Experiment in all cases: relative viability (nuclei count vs DMSO), 5 days (fraction); higher = more cells survive
Bexarotene = compound: C=C(c1ccc(C(=O)O)cc1)c1cc2c(cc1C)C(C)(C)CCC2(C)C [Bexarotene]
Outline: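 Cells of lung cancer lines were placed in 1536-well plates and kept overnight at 37 °C. Pinning then delivered five library-drug doses (not always all listed), spaced by √10, onto plates anchored with vehicle, and the cells were left 5 days without changing medium. One step fixed, permeabilised and stained them with Hoechst, and MetaXpress counted nuclei in 4× images. Viability, as a median over plates, is treated-well nuclei divided by vehicle-well nuclei, with acceptance only at control CV below 25% and at least one doubling.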

Bexarotene + Foretinib = compound: C=C(c1ccc(C(=O)O)cc1)c1cc2c(cc1C)C(C)(C)CCC2(C)C [Bexarotene] + COc1cc2c(Oc3ccc(NC(=O)C4(C(=O)Nc5ccc(F)cc5)CC4)cc3F)ccnc2cc1OCCCN1CCOCC1 [Foretinib] (partner 0.25 µM)
Outline: (§1)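 Five library-drug doses in √10 steps were combined with a fixed anchor-drug dose, or a single drug was given alone, by pin tool to lung cancer cell lines in 1536-well plates the day after seeding. Nuclei were stained and counted after 5 days. Relative viability is the nuclei count in treated wells over that in vehicle wells, taken as the median of duplicate plates.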

Bexarotene + Palbociclib = compound: C=C(c1ccc(C(=O)O)cc1)c1cc2c(cc1C)C(C)(C)CCC2(C)C [Bexarotene] + CC(=O)c1c(C)c2cnc(Nc3ccc(N4CCNCC4)cn3)nc2n(C2CCCC2)c1=O [Palbociclib] (partner 0.5 µM)
Outline: as §1

Bexarotene + OSI-027 = compound: C=C(c1ccc(C(=O)O)cc1)c1cc2c(cc1C)C(C)(C)CCC2(C)C [Bexarotene] + COc1cccc2cc(-c3nc([C@H]4CC[C@H](C(=O)O)CC4)n4ncnc(N)c34)[nH]c12 [OSI-027] (partner 0.5 µM)
Outline: as §1

Cell Line: NCI-H2347
- relative viability (Bexarotene; 0.08 µM): 1.18
- relative viability (Bexarotene; 0.253 µM): 1.04
- relative viability (Bexarotene; 0.8 µM): 0.809
- relative viability (Bexarotene; 2.53 µM): 0.981
- relative viability (Bexarotene; 8 µM): 1.07
- relative viability (Bexarotene + Foretinib; first compound 0.08 µM): 0.878
- relative viability (Bexarotene + Foretinib; first compound 0.253 µM): 0.783
- relative viability (Bexarotene + Foretinib; first compound 0.8 µM): 0.703
- relative viability (Bexarotene + Foretinib; first compound 2.53 µM): 0.882
- relative viability (Bexarotene + Foretinib; first compound 8 µM): 1.09
- relative viability (Bexarotene + Palbociclib; first compound 0.08 µM): 0.465
- relative viability (Bexarotene + Palbociclib; first compound 0.253 µM): 0.413
- relative viability (Bexarotene + Palbociclib; first compound 0.8 µM): 0.343
- relative viability (Bexarotene + Palbociclib; first compound 2.53 µM): 0.368
- relative viability (Bexarotene + Palbociclib; first compound 8 µM): 0.426
- relative viability (Bexarotene + OSI-027; first compound 0.08 µM): 0.353
- relative viability (Bexarotene + OSI-027; first compound 0.253 µM): 0.275
- relative viability (Bexarotene + OSI-027; first compound 2.53 µM): 0.446
- relative viability (Bexarotene + OSI-027; first compound 8 µM): 0.386

Cell Line: NCI-H2405
- relative viability (Bexarotene; 0.08 µM): 1.12
- relative viability (Bexarotene; 0.253 µM): 1.01
- relative viability (Bexarotene; 0.8 µM): 0.857
- relative viability (Bexarotene; 2.53 µM): 0.97
- relative viability (Bexarotene; 8 µM): 0.986
- relative viability (Bexarotene + Foretinib; first compound 0.08 µM): 1.17
- relative viability (Bexarotene + Foretinib; first compound 0.253 µM): 1.05
- relative viability (Bexarotene + Foretinib; first compound 0.8 µM): 0.758
- relative viability (Bexarotene + Foretinib; first compound 2.53 µM): 1.05
- relative viability (Bexarotene + Foretinib; first compound 8 µM): 1.02
- relative viability (Bexarotene + Palbociclib; first compound 0.08 µM): 0.541
- relative viability (Bexarotene + Palbociclib; first compound 0.253 µM): 0.557
- relative viability (Bexarotene + Palbociclib; first compound 0.8 µM): 0.44
- relative viability (Bexarotene + Palbociclib; first compound 2.53 µM): 0.565
- relative viability (Bexarotene + Palbociclib; first compound 8 µM): 0.508
- relative viability (Bexarotene + OSI-027; first compound 0.08 µM): 0.675
- relative viability (Bexarotene + OSI-027; first compound 0.253 µM): 0.674
- relative viability (Bexarotene + OSI-027; first compound 0.8 µM): 0.512
- relative viability (Bexarotene + OSI-027; first compound 2.53 µM): 0.708
- relative viability (Bexarotene + OSI-027; first compound 8 µM): 0.65

Cell Line: NCI-H3122
- relative viability (Bexarotene; 0.08 µM): 1.05
- relative viability (Bexarotene; 0.253 µM): 1.11
- relative viability (Bexarotene; 0.8 µM): 1.03
- relative viability (Bexarotene; 2.53 µM): 1.04
- relative viability (Bexarotene; 8 µM): 1.05
- relative viability (Bexarotene + Foretinib; first compound 0.08 µM): 0.99
- relative viability (Bexarotene + Foretinib; first compound 0.253 µM): 0.988
- relative viability (Bexarotene + Foretinib; first compound 0.8 µM): 0.957
- relative viability (Bexarotene + Foretinib; first compound 2.53 µM): 0.9
- relative viability (Bexarotene + Foretinib; first compound 8 µM): 0.975
- relative viability (Bexarotene + Palbociclib; first compound 0.08 µM): 0.225
- relative viability (Bexarotene + Palbociclib; first compound 0.253 µM): 0.216
- relative viability (Bexarotene + Palbociclib; first compound 0.8 µM): 0.187
- relative viability (Bexarotene + Palbociclib; first compound 2.53 µM): 0.254
- relative viability (Bexarotene + Palbociclib; first compound 8 µM): 0.23
- relative viability (Bexarotene + OSI-027; first compound 0.08 µM): 1.09
- relative viability (Bexarotene + OSI-027; first compound 0.253 µM): 1.09
- relative viability (Bexarotene + OSI-027; first compound 0.8 µM): 1.05
- relative viability (Bexarotene + OSI-027; first compound 2.53 µM): 0.989
- relative viability (Bexarotene + OSI-027; first compound 8 µM): 1.07

Cell Line: PC-3 [JPC-3]
- relative viability (Bexarotene; 0.08 µM): 1.14
- relative viability (Bexarotene; 0.253 µM): 0.98
- relative viability (Bexarotene; 0.8 µM): 0.918
- relative viability (Bexarotene; 2.53 µM): 0.964
- relative viability (Bexarotene; 8 µM): 0.932
- relative viability (Bexarotene + Foretinib; first compound 0.08 µM): 1.13
- relative viability (Bexarotene + Foretinib; first compound 0.253 µM): 0.949
- relative viability (Bexarotene + Foretinib; first compound 0.8 µM): 0.941
- relative viability (Bexarotene + Foretinib; first compound 2.53 µM): 0.99
- relative viability (Bexarotene + Foretinib; first compound 8 µM): 0.891
- relative viability (Bexarotene + Palbociclib; first compound 0.08 µM): 0.556
- relative viability (Bexarotene + Palbociclib; first compound 0.253 µM): 0.514
- relative viability (Bexarotene + Palbociclib; first compound 0.8 µM): 0.492
- relative viability (Bexarotene + Palbociclib; first compound 2.53 µM): 0.471
- relative viability (Bexarotene + Palbociclib; first compound 8 µM): 0.493
- relative viability (Bexarotene + OSI-027; first compound 0.08 µM): 0.816
- relative viability (Bexarotene + OSI-027; first compound 0.253 µM): 0.798
- relative viability (Bexarotene + OSI-027; first compound 0.8 µM): 0.604
- relative viability (Bexarotene + OSI-027; first compound 2.53 µM): 0.733
- relative viability (Bexarotene + OSI-027; first compound 8 µM): 0.676

Cell Line: PC-14
- relative viability (Bexarotene; 0.08 µM): 1.05
- relative viability (Bexarotene; 0.253 µM): 1.17
- relative viability (Bexarotene; 0.8 µM): 0.973
- relative viability (Bexarotene; 2.53 µM): 0.92
- relative viability (Bexarotene; 8 µM): 0.896
- relative viability (Bexarotene + Foretinib; first compound 0.08 µM): 1.12
- relative viability (Bexarotene + Foretinib; first compound 0.253 µM): 1.08
- relative viability (Bexarotene + Foretinib; first compound 0.8 µM): 0.973
- relative viability (Bexarotene + Foretinib; first compound 2.53 µM): 1.01
- relative viability (Bexarotene + Foretinib; first compound 8 µM): 0.934
- relative viability (Bexarotene + Palbociclib; first compound 0.08 µM): 0.519
- relative viability (Bexarotene + Palbociclib; first compound 0.253 µM): 0.531
- relative viability (Bexarotene + Palbociclib; first compound 0.8 µM): 0.543
- relative viability (Bexarotene + Palbociclib; first compound 2.53 µM): 0.489
- relative viability (Bexarotene + Palbociclib; first compound 8 µM): 0.344
- relative viability (Bexarotene + OSI-027; first compound 0.08 µM): 0.88
- relative viability (Bexarotene + OSI-027; first compound 0.253 µM): 0.938
- relative viability (Bexarotene + OSI-027; first compound 0.8 µM): 0.743
- relative viability (Bexarotene + OSI-027; first compound 2.53 µM): 0.836
- relative viability (Bexarotene + OSI-027; first compound 8 µM): 0.647
